Test results published in the CheMixHub viscosity set.
± gives the uncertainty stated by the source.

Test: xn = mol fraction of the nth substance listed

CCOC(=O)c1ccccc1 + C1COCCO1
viscosity [mPa·s], 101 kPa
Conditions	x1 = 0.0639	x1 = 0.1304	x1 = 0.1626	x1 = 0.2849	x1 = 0.3735	x1 = 0.4716	x1 = 0.5805	x1 = 0.7048	x1 = 0.8402
303.15 K	1.118 ± 0.017	1.155 ± 0.018	1.172 ± 0.018	1.246 ± 0.018	1.296 ± 0.018	1.369 ± 0.018	1.445 ± 0.018	1.535 ± 0.019	1.633 ± 0.019
308.15 K	1.026 ± 0.017	1.062 ± 0.017	1.078 ± 0.017	1.146 ± 0.018	1.195 ± 0.018	1.259 ± 0.018	1.33 ± 0.018	1.416 ± 0.018	1.502 ± 0.018
313.15 K	0.972 ± 0.017	1.001 ± 0.017	1.013 ± 0.017	1.069 ± 0.017	1.108 ± 0.017	1.16 ± 0.018	1.214 ± 0.018	1.279 ± 0.018	1.348 ± 0.018

CCCCCl + c1ccccc1
viscosity [mPa·s], 101 kPa
Conditions	298.15 K	308.15 K	318.15 K	323.15 K
x1 = 0.098	0.557	0.492	0.437	0.417
x1 = 0.153	0.542	0.481	0.428	0.404
x1 = 0.8	0.454	–	–	0.358

CCOC(=O)c1ccccc1 + CC(=O)O
298.15 K, 101 kPa
Conditions	viscosity [mPa·s]
x2 = 0.1041	1.948 ± 0.051
x2 = 0.2129	1.874 ± 0.049
x2 = 0.3045	1.797 ± 0.047
x2 = 0.3882	1.727 ± 0.046
x2 = 0.475	1.651 ± 0.044
x2 = 0.5822	1.538 ± 0.041
x2 = 0.6826	1.446 ± 0.038
x2 = 0.7956	1.322 ± 0.035
x2 = 0.9132	1.202 ± 0.032

CCOC(=O)c1ccccc1 + c1ccccc1
298.15 K, 101 kPa
Conditions	viscosity [mPa·s]
x1 = 0.1302	0.7244 ± 0.019
x1 = 0.3809	1.018 ± 0.027
x1 = 0.522	1.2 ± 0.032
x1 = 0.6112	1.327 ± 0.035
x1 = 0.7595	1.557 ± 0.041
x1 = 0.848	1.709 ± 0.045

CC(C)O + CO
298.15 K, 101.33 kPa
Conditions	viscosity [mPa·s]
x2 = 0.0893	1.891 ± 0.034
x2 = 0.225	1.625 ± 0.029
x2 = 0.2835	1.518 ± 0.028
x2 = 0.3984	1.332 ± 0.024
x2 = 0.5178	1.16 ± 0.021
x2 = 0.6024	1.051 ± 0.019
x2 = 0.6852	0.945 ± 0.018
x2 = 0.8272	0.772 ± 0.015
x2 = 0.9058	0.675 ± 0.013

CC(=O)[O-].CCCC[NH2+]CCO + CCCCn1cc[n+](C)c1.O=S(=O)([N-]S(=O)(=O)C(F)(F)F)C(F)(F)F
Conditions	viscosity [mPa·s]
308.15 K, 101 kPa, x1 = 0.901	343.5 ± 11

CCOC(=O)c1ccccc1 + CCCCCCCCCCCCCC
101 kPa
Conditions	viscosity [mPa·s]
298.15 K, x2 = 0.0376	1.927 ± 0.06
298.15 K, x2 = 0.0653	1.899 ± 0.059
298.15 K, x2 = 0.097	1.866 ± 0.058
298.15 K, x2 = 0.1285	1.84 ± 0.057
298.15 K, x2 = 0.1619	1.815 ± 0.057
298.15 K, x2 = 0.1952	1.799 ± 0.056
298.15 K, x2 = 0.229	1.781 ± 0.056
298.15 K, x2 = 0.269	1.767 ± 0.055
298.15 K, x2 = 0.3084	1.754 ± 0.055
298.15 K, x2 = 0.3521	1.745 ± 0.055
298.15 K, x2 = 0.3928	1.742 ± 0.055
298.15 K, x2 = 0.4877	1.744 ± 0.055
298.15 K, x2 = 0.5485	1.755 ± 0.056
298.15 K, x2 = 0.5924	1.767 ± 0.056
298.15 K, x2 = 0.6572	1.791 ± 0.057
298.15 K, x2 = 0.7238	1.827 ± 0.058
298.15 K, x2 = 0.7795	1.867 ± 0.06
298.15 K, x2 = 0.8695	1.935 ± 0.063
308.15 K, x2 = 0.0358	1.606 ± 0.05
308.15 K, x2 = 0.0727	1.582 ± 0.049
308.15 K, x2 = 0.1009	1.566 ± 0.049
308.15 K, x2 = 0.1305	1.552 ± 0.048
308.15 K, x2 = 0.1614	1.537 ± 0.048
308.15 K, x2 = 0.198	1.524 ± 0.048
308.15 K, x2 = 0.2316	1.515 ± 0.047
308.15 K, x2 = 0.2666	1.506 ± 0.047
308.15 K, x2 = 0.3094	1.498 ± 0.047
308.15 K, x2 = 0.3501	1.493 ± 0.047
308.15 K, x2 = 0.3905	1.49 ± 0.047
308.15 K, x2 = 0.4393	1.489 ± 0.047
308.15 K, x2 = 0.4794	1.491 ± 0.047
308.15 K, x2 = 0.5373	1.498 ± 0.047
308.15 K, x2 = 0.5983	1.51 ± 0.048
308.15 K, x2 = 0.6573	1.527 ± 0.049
308.15 K, x2 = 0.7193	1.552 ± 0.05
308.15 K, x2 = 0.8442	1.615 ± 0.052
308.15 K, x2 = 0.9249	1.663 ± 0.054
318.15 K, x2 = 0.0231	1.332 ± 0.042
318.15 K, x2 = 0.0543	1.31 ± 0.041
318.15 K, x2 = 0.0817	1.291 ± 0.04
318.15 K, x2 = 0.1144	1.274 ± 0.04
318.15 K, x2 = 0.1449	1.259 ± 0.039
318.15 K, x2 = 0.1819	1.245 ± 0.039
318.15 K, x2 = 0.2156	1.233 ± 0.039
318.15 K, x2 = 0.2563	1.225 ± 0.038
318.15 K, x2 = 0.2936	1.219 ± 0.038
318.15 K, x2 = 0.3396	1.213 ± 0.038
318.15 K, x2 = 0.3807	1.212 ± 0.038
318.15 K, x2 = 0.4322	1.213 ± 0.038
318.15 K, x2 = 0.4784	1.216 ± 0.038
318.15 K, x2 = 0.5446	1.226 ± 0.039
318.15 K, x2 = 0.5958	1.237 ± 0.039
318.15 K, x2 = 0.6468	1.251 ± 0.04
318.15 K, x2 = 0.6941	1.267 ± 0.041
318.15 K, x2 = 0.7925	1.306 ± 0.042
318.15 K, x2 = 0.8579	1.336 ± 0.043

C=C(C)C(=O)OCC + C1CCCCC1
viscosity [mPa·s], 101 kPa
Conditions	298.15 K	308.15 K
x1 = 0.0581	0.837 ± 0.084	0.711 ± 0.072
x1 = 0.1534	0.768 ± 0.077	0.651 ± 0.065
x1 = 0.2549	0.711 ± 0.071	0.601 ± 0.06
x1 = 0.3548	0.668 ± 0.067	0.564 ± 0.057
x1 = 0.3935	0.655 ± 0.066	0.552 ± 0.055
x1 = 0.5465	0.619 ± 0.062	0.52 ± 0.052
x1 = 0.5568	0.618 ± 0.062	0.518 ± 0.052
x1 = 0.6264	0.61 ± 0.061	0.511 ± 0.051
x1 = 0.7559	0.606 ± 0.061	0.506 ± 0.051
x1 = 0.8548	0.614 ± 0.062	0.51 ± 0.051
x1 = 0.9399	0.628 ± 0.063	0.52 ± 0.052

CC(C)CC1CCCCC1 + CCCCCCCCCCCCCCCC
viscosity [mPa·s], 102 kPa
Conditions	x1 = 0.1	x1 = 0.2005	x1 = 0.3003	x1 = 0.3992	x1 = 0.5037	x1 = 0.6003	x1 = 0.6997	x1 = 0.7997
293.15 K	3.22 ± 0.03	2.96 ± 0.02	2.7 ± 0.02	2.46 ± 0.02	2.2 ± 0.02	1.99 ± 0.02	1.77 ± 0.02	1.56 ± 0.02
303.15 K	2.57 ± 0.02	2.38 ± 0.02	2.19 ± 0.02	2.01 ± 0.02	1.82 ± 0.02	1.65 ± 0.02	1.48 ± 0.02	1.31 ± 0.02
313.15 K	2.1 ± 0.02	1.95 ± 0.02	1.81 ± 0.02	1.67 ± 0.02	1.52 ± 0.02	1.39 ± 0.02	1.26 ± 0.02	1.12 ± 0.02
323.15 K	1.74 ± 0.02	1.63 ± 0.02	1.52 ± 0.02	1.41 ± 0.02	1.29 ± 0.02	1.19 ± 0.02	1.07 ± 0.02	0.972 ± 0.021
